Activity calls are given as the source filed them.
Key:
[1] = cytotoxicity toward MDA-MB-231 breast cancer cells – cell-based, CellTiter-Glo luminescence, cherry-pick, cytotoxicity control for RAD54 inhibitor project, dose response (AID 651692); assay type: functional
[2] = biological target: T1, DNA repair and recombination protein RAD54-like (Homo sapiens, UniProt Q92698); assay: RAD54 Holliday junction migration blockers – biochemical, fluorescence, cherry-picked samples, dose series, confirmation (AID 651657); assay type: functional
T1 sequence (Q92698 whole entry): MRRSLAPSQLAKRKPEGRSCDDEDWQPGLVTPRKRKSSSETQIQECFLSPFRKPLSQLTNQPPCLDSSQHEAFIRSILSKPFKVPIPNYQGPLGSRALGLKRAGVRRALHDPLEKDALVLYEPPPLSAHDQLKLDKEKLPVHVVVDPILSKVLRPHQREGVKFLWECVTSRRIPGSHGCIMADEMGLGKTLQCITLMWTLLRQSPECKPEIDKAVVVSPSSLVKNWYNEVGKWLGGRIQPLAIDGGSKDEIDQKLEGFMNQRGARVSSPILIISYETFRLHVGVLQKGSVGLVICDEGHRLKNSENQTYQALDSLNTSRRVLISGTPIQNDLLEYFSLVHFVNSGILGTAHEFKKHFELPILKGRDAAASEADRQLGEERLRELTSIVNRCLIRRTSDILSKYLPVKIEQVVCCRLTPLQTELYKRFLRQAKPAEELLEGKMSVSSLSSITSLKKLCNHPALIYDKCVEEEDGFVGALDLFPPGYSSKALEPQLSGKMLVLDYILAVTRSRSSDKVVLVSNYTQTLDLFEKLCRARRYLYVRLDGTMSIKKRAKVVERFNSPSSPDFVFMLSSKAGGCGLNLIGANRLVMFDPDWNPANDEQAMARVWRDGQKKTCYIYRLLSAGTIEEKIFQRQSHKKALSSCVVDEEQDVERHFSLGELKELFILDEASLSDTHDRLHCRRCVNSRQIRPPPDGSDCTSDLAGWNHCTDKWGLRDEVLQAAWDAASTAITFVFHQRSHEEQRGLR

[3] = biological target: DNA repair protein RAD52 homolog (Homo sapiens, UniProt P43351); assay type: functional, biochemical
[4] = biological target: Nuclear receptor subfamily 5 group A member 2 (Homo sapiens, UniProt O00482); assay type: functional, cell-based;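 also: HEK293T cells transfected with LRH-1 and a StAR promoter luciferase reporter; potency for inhibitors that lower LRH-1 driven reporter light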
[5] = biological target: Steroidogenic factor 1 (Homo sapiens, UniProt Q13285); assay: Counterscreen for inverse agonists of the liver receptor homolog-1 (LRH-1; NR5A2): Luminescence-based cell-based high throughput dose response assay to identify inverse agonists of the Steroidogenic Factor 1 Nuclear Receptor (SF1; NR5A1).; assay type: functional
[6] = nonselective StAR promoter luciferase inhibitors – cell-based, luminescence, luciferase reporter, counter-screen for LRH-1 inverse agonist project, dose response (AID 651969); assay type: functional
[7] = biological target: Beta-lactamase (Pseudomonas aeruginosa, UniProt Q79MP6);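 also: biochemical dose-response test of metallo-beta-lactamase enzyme inhibition, read out by epi-absorbance; purified recombinant IMP-1 metallo-beta-lactamase with nitrocefin as substrate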
[8] = biological target: Beta-lactamase (Salmonella choleraesuis (strain SC-B67), UniProt Q5J463)
[9] = biological target: Low molecular weight phosphotyrosine protein phosphatase (Homo sapiens, UniProt P24666); assay type: functional; settings: read-out: IC50_Mean;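 also: Dose-response confirmation assay measuring inhibition of LMPTP enzyme activity by fluorescence intensity read-out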
[10] = biological target: T2, Tyrosine-protein phosphatase non-receptor type 22 (Homo sapiens, UniProt Q9Y2R2); assay: PTPN22 enzyme inhibitors – biochemical, fluorescence, LYP catalytic domain, selectivity assay for LMPTP inhibitor project, dose response (AID 652006); assay type: functional; settings: read-out: IC50_Mean
T2 sequence (Q9Y2R2 whole entry): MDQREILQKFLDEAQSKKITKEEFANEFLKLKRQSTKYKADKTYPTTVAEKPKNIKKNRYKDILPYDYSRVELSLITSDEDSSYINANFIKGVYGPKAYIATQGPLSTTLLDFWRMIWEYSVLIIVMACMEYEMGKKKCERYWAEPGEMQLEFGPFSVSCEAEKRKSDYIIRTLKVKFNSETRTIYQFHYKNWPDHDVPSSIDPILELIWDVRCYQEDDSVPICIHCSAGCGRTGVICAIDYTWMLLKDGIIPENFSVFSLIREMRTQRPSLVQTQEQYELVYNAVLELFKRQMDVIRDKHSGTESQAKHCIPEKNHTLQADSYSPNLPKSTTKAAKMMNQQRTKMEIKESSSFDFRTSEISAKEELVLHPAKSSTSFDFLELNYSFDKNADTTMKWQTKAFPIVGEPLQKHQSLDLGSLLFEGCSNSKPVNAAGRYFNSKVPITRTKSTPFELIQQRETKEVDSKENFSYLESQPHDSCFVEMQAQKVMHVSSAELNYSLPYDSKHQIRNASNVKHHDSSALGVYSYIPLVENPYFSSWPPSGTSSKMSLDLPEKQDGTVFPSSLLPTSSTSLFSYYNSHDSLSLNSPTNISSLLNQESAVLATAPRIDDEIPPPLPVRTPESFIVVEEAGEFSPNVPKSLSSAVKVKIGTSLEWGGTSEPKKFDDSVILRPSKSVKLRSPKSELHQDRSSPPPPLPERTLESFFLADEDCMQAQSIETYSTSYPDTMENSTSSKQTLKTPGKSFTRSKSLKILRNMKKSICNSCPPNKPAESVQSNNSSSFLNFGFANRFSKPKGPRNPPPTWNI

[11] = viability loss in HEK293T cells – cell-based, cherry-picks, cytotoxicity control for HIV Vif inhibitor project, dose response (AID 652208); assay type: functional
[12] = biological target: T3, Corticotropin-releasing factor receptor 2/Corticotropin-releasing factor-binding protein (Homo sapiens, UniProt P24387+Q13324); assay: Dose Response confirmation of uHTS hits for small molecule antagonists of the CRF-binding protein and CRF-R2 receptor complex.; assay type: functional; settings: read-out: IC50_Mean
T3 sequence (Q13324 whole entry): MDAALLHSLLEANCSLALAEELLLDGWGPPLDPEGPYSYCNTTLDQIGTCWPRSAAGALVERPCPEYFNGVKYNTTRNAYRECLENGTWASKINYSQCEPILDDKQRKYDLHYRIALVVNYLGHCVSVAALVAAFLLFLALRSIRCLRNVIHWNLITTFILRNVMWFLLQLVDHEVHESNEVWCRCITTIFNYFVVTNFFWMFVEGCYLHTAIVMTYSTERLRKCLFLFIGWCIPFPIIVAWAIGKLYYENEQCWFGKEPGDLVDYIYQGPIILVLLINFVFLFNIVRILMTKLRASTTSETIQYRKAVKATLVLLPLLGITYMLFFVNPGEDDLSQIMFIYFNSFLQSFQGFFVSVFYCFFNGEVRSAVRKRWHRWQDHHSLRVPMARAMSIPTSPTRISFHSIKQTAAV
T3 sequence (P24387 whole entry): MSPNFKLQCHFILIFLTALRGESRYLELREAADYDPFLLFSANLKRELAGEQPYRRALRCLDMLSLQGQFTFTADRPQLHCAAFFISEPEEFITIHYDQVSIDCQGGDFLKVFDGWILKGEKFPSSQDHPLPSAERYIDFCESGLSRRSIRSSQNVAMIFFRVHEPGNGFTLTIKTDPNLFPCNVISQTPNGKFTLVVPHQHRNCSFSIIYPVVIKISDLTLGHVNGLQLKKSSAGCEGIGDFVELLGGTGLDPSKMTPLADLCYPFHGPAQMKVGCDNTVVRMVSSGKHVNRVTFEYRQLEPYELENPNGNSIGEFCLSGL

[13] = biological target: T3, Corticotropin-releasing factor receptor 2/Corticotropin-releasing factor-binding protein; assay: activators of CRF receptor 2 with binding protein – uHTS hits, confirmation (AID 602473); assay type: functional; settings: read-out: EC50_Mean
[14] = blockers of CRF-binding protein–CRF-R2 complex – cell-based, uHTS hits, 384-well, dose response (AID 651639); assay type: functional, Homo sapiens; settings: read-out: IC50_Mean
[15] = biological target: T4, ATP-dependent translocase ABCB1 (Homo sapiens, UniProt P08183); assay: inhibition of BCRP-mediated JC-1 efflux – Ig-MXP3 cells, flow cytometry, set 2, dose response (AID 504566); assay type: functional; settings: read-out: EC50_MICROM_;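 also: flow cytometry median green fluorescence of retained JC-1 dye; potency of efflux pump inhibition measured as rising substrate retention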
[16] = biological target: T4, ATP-dependent translocase ABCB1; assay: P-gp JC-1 efflux blockade concentration-response – Jurkat-DNR cells, flow cytometry, set 2, dose response (AID 504569); assay type: functional; settings: read-out: EC50_MICROM_;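 also: potency of pump inhibitors that raise cellular JC-1 green fluorescence up to the nicardipine level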
[17] = Inhibition of T. cruzi Tulahuen strain amastigotes in L-6 muscle cells Measured in Cell-Based and Microorganism Combination System Using Plate Reader - 2138-03_Inhibitor_Dose_CherryPick_Activity.; assay type: functional; settings: Rattus norvegicus, L6
[18] = L6 myocyte viability loss – cell-based, plate reader, cherry-pick, cytotoxicity control, dose response (AID 651896); assay type: functional
[19] = Inhibition of Plasmodium falciparum NF54 Measured in Cell-Based System Using Plate Reader - 2138-11_Inhibitor_Dose_CherryPick_Activity.; assay type: functional
[20] = antileishmanial activity on axenic amastigotes – plate reader, cherry pick, dose response (AID 651891); assay type: functional, cell-based; settings: Leishmania donovani
[21] = intracellular Trypanosoma cruzi inhibitors in host cells – cell-based, plate reader, cherry-pick samples, set 3, dose response (AID 651818); assay type: functional;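 also: compounds incubated with infected cells for about four days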
[22] = African trypanosome bloodstream form growth inhibition – STIB900 strain, plate reader, cherry pick, dose response (AID 651893); assay type: functional, cell-based, Trypanosoma brucei rhodesiense; settings: Trypanosoma brucei
[23] = reduction of Shn3 3'UTR-driven luciferase in osteoblasts – cell-based, Clone20 osteoblasts, firefly luciferase, cherry-picked, dose response (AID 624132); assay type: functional;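 also: firefly luciferase luminescence from reporter carrying the Shn3 3'UTR in osteoblasts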
[24] = loss of viability in HepG2 cells – cell-based, CellTiter-Glo, cherry-picked, cytotoxicity control for Shn3 inhibitor project, dose response (AID 624134); assay type: functional
[25] = non-specific 3'UTR reporter inhibition in Clone20-Shn3RL – cell-based, Renilla luciferase, cherry-picked, counter-screen for Shn3 inhibitor project, dose response (AID 624133); assay type: functional
[26] = Fluorescence-based cell-based high throughput dose response assay for inhibitors of the interaction of nucleotide-binding oligomerization domain containing 2 (NOD2) and the receptor-interacting serine-threonine kinase 2 (RIPK2).; assay type: functional; settings: Homo sapiens
[27] = biological target: Beta Lactamase (Pseudomonas aeruginosa, UniProt Q932Y6); assay: BLA reporter interference, concentration series – BLA reporter cells, FRET fluorescence, artefact control for NOD2-RIPK2 interaction inhibitor project, dose response (AID 651552); assay type: functional, cell-based
[28] = biological target: Paired box protein Pax-8 (Homo sapiens, UniProt Q06710); assay: PAX8 transcriptional activity inhibition in RMG-I – RMG-I cells, luciferase, cherry-pick, dose response (AID 687027); assay type: functional, cell-based;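 also: luciferase reporter driven by Pax8 target thyroperoxidase promoter measured by SteadyGlo luminescence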
Paired box protein Pax-8, sequence (Q06710 whole entry): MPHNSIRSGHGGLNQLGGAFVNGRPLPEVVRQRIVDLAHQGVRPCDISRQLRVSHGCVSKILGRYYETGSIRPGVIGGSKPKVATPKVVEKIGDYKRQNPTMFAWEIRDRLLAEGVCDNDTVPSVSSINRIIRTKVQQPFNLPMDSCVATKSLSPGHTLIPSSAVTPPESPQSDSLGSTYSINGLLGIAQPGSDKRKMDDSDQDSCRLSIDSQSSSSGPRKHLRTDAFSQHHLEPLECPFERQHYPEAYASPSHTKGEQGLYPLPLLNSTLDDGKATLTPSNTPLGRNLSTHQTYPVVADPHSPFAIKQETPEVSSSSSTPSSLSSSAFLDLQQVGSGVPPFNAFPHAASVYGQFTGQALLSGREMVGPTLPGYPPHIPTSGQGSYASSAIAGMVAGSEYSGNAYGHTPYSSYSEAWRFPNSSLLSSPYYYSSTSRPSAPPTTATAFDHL

T4 sequence (P08183 whole entry): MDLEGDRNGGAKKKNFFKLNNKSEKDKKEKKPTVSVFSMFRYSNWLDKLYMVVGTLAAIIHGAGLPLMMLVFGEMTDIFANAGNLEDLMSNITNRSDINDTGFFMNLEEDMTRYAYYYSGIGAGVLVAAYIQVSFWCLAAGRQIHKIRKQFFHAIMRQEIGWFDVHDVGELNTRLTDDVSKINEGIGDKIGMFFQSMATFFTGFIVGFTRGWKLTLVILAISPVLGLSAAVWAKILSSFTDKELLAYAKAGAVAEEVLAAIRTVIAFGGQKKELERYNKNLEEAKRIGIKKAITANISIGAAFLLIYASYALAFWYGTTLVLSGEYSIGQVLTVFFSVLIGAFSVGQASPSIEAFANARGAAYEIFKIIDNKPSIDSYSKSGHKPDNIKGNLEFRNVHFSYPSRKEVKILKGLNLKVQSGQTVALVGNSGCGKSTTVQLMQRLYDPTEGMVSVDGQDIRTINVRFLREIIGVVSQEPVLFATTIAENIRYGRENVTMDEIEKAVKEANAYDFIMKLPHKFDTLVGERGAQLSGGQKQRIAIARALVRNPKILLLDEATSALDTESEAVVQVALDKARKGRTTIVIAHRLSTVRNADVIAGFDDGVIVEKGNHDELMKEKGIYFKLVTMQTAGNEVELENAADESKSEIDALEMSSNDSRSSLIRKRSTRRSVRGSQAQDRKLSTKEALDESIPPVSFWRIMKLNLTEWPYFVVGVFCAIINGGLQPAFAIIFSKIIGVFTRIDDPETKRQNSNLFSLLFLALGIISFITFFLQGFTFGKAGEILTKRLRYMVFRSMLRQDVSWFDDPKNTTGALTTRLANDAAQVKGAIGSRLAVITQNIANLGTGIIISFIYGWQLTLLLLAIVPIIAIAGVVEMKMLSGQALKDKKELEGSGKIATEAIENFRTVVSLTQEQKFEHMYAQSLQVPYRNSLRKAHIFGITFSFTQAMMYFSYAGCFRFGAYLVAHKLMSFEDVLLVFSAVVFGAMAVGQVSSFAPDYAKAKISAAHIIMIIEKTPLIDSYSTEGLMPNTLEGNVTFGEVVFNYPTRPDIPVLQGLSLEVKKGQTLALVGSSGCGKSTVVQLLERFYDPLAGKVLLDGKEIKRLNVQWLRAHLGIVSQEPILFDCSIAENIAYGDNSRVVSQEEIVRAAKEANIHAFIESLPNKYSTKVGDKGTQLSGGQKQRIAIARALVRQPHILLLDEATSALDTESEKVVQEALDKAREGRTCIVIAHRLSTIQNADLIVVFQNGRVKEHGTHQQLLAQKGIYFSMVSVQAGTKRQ
DNA repair protein RAD52 homolog, sequence (P43351 whole entry): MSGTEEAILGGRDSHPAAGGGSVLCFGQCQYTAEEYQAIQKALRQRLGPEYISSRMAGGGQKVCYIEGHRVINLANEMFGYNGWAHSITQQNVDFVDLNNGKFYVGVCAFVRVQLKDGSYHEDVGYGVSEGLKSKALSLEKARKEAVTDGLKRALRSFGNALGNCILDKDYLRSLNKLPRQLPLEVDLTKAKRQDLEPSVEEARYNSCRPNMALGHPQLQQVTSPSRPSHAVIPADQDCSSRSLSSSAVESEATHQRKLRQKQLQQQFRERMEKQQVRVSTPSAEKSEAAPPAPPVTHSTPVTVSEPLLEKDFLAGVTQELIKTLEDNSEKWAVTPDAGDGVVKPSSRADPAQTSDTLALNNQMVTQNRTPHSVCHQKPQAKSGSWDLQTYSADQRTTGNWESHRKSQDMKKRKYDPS
Beta Lactamase, sequence (Q932Y6 whole entry): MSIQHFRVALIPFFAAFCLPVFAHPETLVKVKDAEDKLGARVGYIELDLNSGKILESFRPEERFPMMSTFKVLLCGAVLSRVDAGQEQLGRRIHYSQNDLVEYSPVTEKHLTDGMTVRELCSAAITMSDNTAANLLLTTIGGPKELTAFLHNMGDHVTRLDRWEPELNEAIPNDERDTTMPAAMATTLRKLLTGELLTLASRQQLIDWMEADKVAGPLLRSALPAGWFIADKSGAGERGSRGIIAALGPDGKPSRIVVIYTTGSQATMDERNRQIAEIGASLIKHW
Beta-lactamase (Pseudomonas aeruginosa, UniProt Q79MP6), sequence (Q79MP6 whole entry): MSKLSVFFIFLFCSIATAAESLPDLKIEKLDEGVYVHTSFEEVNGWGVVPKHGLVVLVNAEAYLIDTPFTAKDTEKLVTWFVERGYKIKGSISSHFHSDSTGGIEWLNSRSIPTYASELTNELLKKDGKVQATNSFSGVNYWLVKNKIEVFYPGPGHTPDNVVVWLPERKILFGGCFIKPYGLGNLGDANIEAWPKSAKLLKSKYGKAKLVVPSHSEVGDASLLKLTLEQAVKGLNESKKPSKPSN
Beta-lactamase (Salmonella choleraesuis (strain SC-B67), UniProt Q5J463), sequence (Q5J463 whole entry): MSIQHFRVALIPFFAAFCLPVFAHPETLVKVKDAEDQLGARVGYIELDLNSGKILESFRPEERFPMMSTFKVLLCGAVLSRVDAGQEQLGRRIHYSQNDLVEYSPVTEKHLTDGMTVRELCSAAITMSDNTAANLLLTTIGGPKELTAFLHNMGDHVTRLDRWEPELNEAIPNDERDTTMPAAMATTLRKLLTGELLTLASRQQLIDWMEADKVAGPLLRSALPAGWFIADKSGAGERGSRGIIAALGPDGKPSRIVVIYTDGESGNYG
Steroidogenic factor 1, sequence (Q13285 whole entry): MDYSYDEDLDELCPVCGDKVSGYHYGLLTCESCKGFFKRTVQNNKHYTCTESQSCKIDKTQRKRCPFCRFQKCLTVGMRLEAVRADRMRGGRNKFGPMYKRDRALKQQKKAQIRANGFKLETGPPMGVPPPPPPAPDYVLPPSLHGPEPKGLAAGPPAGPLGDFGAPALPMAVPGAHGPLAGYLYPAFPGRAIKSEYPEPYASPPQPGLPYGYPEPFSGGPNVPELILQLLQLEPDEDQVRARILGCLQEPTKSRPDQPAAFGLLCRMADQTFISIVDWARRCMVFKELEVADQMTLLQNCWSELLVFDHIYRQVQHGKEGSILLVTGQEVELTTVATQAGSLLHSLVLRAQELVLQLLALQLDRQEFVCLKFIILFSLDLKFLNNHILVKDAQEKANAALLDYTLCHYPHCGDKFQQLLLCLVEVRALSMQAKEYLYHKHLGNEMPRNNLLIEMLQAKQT
Low molecular weight phosphotyrosine protein phosphatase, sequence (P24666 whole entry, the tested form may be a part): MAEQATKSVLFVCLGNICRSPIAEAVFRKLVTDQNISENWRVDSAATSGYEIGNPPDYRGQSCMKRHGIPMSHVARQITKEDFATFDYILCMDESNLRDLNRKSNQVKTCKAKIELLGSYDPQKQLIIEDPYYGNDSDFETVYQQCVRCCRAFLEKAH
Nuclear receptor subfamily 5 group A member 2, sequence (O00482 whole entry): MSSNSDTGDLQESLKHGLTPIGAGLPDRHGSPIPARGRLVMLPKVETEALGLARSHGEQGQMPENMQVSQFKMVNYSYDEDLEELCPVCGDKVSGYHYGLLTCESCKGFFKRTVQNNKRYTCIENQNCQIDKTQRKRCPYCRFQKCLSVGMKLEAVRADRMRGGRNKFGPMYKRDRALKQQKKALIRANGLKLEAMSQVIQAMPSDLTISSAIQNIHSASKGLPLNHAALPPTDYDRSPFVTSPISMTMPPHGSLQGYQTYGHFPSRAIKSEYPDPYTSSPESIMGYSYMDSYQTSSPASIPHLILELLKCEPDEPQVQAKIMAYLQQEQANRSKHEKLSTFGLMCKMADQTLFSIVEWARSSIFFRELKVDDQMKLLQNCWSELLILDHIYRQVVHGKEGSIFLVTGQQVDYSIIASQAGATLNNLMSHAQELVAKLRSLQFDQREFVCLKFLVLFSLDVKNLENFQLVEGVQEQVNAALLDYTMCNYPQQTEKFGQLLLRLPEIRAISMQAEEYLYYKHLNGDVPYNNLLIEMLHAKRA

With `COc1cc2ccccc2cc1C(=O)N(CCN(C)C)c1nc2c(OC)ccc(OC)c2s1` the AC50 [1] was 18.1 µM (active), the AC50 [2] was 100 µM (inactive) and the AC50 [3] was 7.36 µM (active).
With `CCCN(CC(=O)Nc1ccc(C(C)=O)cc1)CC(=O)Nc1ccccc1C` the IC50 [4] was 12 µM (inactive), the IC50 [5] was 0.941 µM (active) and the IC50 [6] was 35.9 µM (inactive).
With `CC(C)(C)c1ccc(-c2c(C(=O)O)c(C(=O)O)c3n2CSC3)cc1` the IC50 [7] was 35.1 µM (inactive) and the IC50 [8] was > 59.6 µM (inactive).
In the case of `Cc1cc(N2CCN(S(=O)(=O)c3ccc(Cl)c(Cl)c3)CC2)c2ccccc2n1`, the IC50 [9] is reported as 19.5 µM (active), the IC50 [10] is reported as 35.8 µM (inactive) and the AC50 [11] is reported as 50.5 µM (active).
For `CC(C)N(C(=O)[C@H]1C[C@H](CC(=O)NCCC2=CCCCC2)C(=O)N2CCc3c([nH]c4ccc(Cl)cc34)[C@]12C)C(C)C`, the IC50 [12] was 3.6 µM (active), the EC50 [13] was > 53 µM (inactive) and the IC50 [14] was 4.28 µM (active).
For `O=C(Cc1ccccc1)N1CCN(c2cc(-c3ccccc3)nc3cc(-c4cccc(Cl)c4)nn23)CC1`, the EC50 [15] was 7.42 µM (active) and the EC50 [16] was 3.62 µM (active).
With `C[C@H](CO)N1C[C@H](C)[C@H](CN(C)Cc2ccccc2)Oc2c(NC(=O)c3ccncc3)cccc2C1=O` the IC50 [17] was 20.6 µM (inactive), the IC50 [18] was > 100 µM (inactive) and the IC50 [19] was 20.6 µM (inactive). For the same compound, the IC50 [20] was > 100 µM (inactive), the AC50 [21] was 0.208 µM (active) and the IC50 [22] was 75.4 µM (inactive).
For `CC1CC(C)CC(C)C(O)C(C#N)=CC=CCC(C2CCCC2C(=O)O)OC(=O)CC(O)C(C)C1` (stereo not drawn), the AC50 [23] was < 0.26 µM (active), the AC50 [24] was 10.2 µM (active) and the AC50 [25] was 1.08 µM (active). For the same compound, the IC50 [26] was 49.8 µM (inactive), the IC50 [27] was 49.8 µM (inactive) and the AC50 [28] was < 0.26 µM (active).

Source: ChEMBL document CHEMBL1201862, “PubChem BioAssay data set” (2004)
